For this assay, the target named is D(1A) dopamine receptor (Homo sapiens) (UniProt P21728). In words: D1 receptor modulation with EC30 dopamine, dose response, D1 allosteric modulator project, cell-based, CRE-luciferase, HEK293 (AID 858).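 Further: HEK 293 cells bearing human D1 receptor stimulated by dopamine at its EC30; luciferase light from a cAMP response element reporter gene.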

pEC50: −log10 of the molar value. Activity calls are given as the source filed them.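 How the source made its calls: active means at least two of three replicate dose series yielding a converging curve fit, whether well or thinly supported; inactive means the rest.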

D(1A) dopamine receptor (Homo sapiens), sequence (P21728 whole entry, looked up): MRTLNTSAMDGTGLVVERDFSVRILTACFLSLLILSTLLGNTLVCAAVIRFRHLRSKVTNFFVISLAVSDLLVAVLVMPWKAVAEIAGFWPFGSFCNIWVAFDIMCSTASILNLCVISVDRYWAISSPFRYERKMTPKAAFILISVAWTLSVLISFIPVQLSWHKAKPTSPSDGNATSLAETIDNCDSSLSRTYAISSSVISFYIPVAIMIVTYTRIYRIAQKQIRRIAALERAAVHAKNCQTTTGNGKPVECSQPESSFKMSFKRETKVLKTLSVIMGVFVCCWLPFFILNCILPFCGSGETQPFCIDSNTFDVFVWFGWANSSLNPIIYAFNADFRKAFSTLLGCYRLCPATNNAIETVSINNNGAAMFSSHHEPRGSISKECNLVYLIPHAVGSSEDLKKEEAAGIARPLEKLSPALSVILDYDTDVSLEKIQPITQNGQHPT

Regarding `CCn1c(SCC(=O)Nc2ccccc2N2CCCCC2)nc2c1c(=O)n(C)c(=O)n2C`, the result was inactive.

Regarding `COc1cc2c(cc1OC)C(C(=O)Nc1ccc3c(c1)OCCO3)C1c3ccccc3CCN1C2=O` (configuration not stated), the outcome was inactive.

In the case of `CSc1ccccc1NC(=O)c1onc(C)c1Cl`, the result was inactive. In the case of `N#Cc1c(N)nc(-c2ccccc2)nc1-c1ccccc1`, the pEC50 (as a rule, the EC50 on a negative log10 scale, so that one unit is a factor of ten) was 5.93. Turning to `COc1ncnc2c1N[C@@](C)(O)c1c(F)c(F)c(F)c(F)c1S2`, the result was inactive.

For the molecule `NC(=O)c1c(NC(=O)CSc2nnc(-c3ccco3)n2-c2ccccc2)sc2c1CCC2`, the outcome was inactive.

In the case of `CCOC(=O)c1nn(-c2ccccc2C)c(=O)c(C#N)c1C`, the outcome was inactive.

`COc1ccccc1CNC(=O)c1ccc(NS(=O)(=O)c2c(C)noc2C)cc1`: the outcome was inactive.

In the case of `COC(=O)c1cc(NC(=O)CSc2nc(C)cc(=O)[nH]2)cc(C(=O)OC)c1`, the result was inactive. As to `CCOC(=O)CCSc1nc(C)c2ccccc2n1`, the result was inactive.

Turning to `CCOC(=O)c1c(C)oc2c1c(C=NCc1ccccn1)c(O)c1ccccc12`, the outcome was inactive. For `CCOc1ccc(C2Oc3nc(SC)nnc3-c3ccccc3N2C(C)=O)cc1OC` (configuration not stated), the pEC50 was 5.62. Regarding `O=C(c1cccn2c(=O)c3cc(Cl)ccc3nc12)N1CCN(Cc2ccc3c(c2)OCO3)CC1`, the result was inactive.

Consider `CCOC(=O)N1CCC(NC(=O)c2cccc3c2C(=O)N(Cc2cccnc2)C3)CC1`, for which the result was inactive.

For the molecule `CCC(=O)n1nc(-c2cccnc2)nc1NCc1ccc(OC)cc1`, the outcome was inactive. Regarding `Cn1nnnc1SCC(=O)Nc1nc(-c2ccccc2)c(-c2ccccc2)o1`, the result was inactive. With `C=CCNc1sc(C(=O)C(C)(C)C)c(N)c1C#N`, the pEC50 was 5.94. For the molecule `Cn1c(=O)c2c(nc(SCCCO)n2Cc2ccccc2Cl)n(C)c1=O`, the result was inactive. On the same count and under the same terms, with `O=C(NCc1cccs1)C1CC(c2ccccc2O)=NO1` (configuration not stated) the entry was “inactive”. Same read-out and setting: with `Cc1nc(-c2ccc(S(=O)(=O)N3CCCCCC3)cc2)cs1` the entry was “inactive”; with `CCOc1ccccc1C1NC(=O)NC(C)=C1C(=O)OC1CCCCC1` (configuration not stated), “inactive”; with `O=S(=O)(c1ccccc1)c1nc(-c2ccco2)oc1N1CCCCCC1`, “inactive”. Same read-out and setting: with `CCN(CC)CCOc1c(Br)ccc2c1sc1nc3n(c(=O)c12)CCC3` the entry was “inactive”. `Cc1ccc(CCNS(=O)(=O)c2cnc[nH]2)cc1`: the result was inactive. Consider `CCn1cc(C(=O)NCC2COc3ccccc3O2)c2cc(OC)c(OC)cc2c1=O` (configuration not stated), for which the outcome was inactive. On the same count and under the same terms, with `C/C(CCc1oc2ccccc2c1-c1ccc(C)o1)=N/O` the entry was “inactive”. Still for that read-out and setting: with `CCCCn1c(=NC(=O)c2ccco2)c(C(=O)OCC)cc2c(=O)n3ccccc3nc21` the entry was “inactive”. Still for that read-out and setting: with `Cc1ccc2c(c1)-c1c(ssc1=S)C(C)(C)N2C(=O)CSc1nncn1C` the entry was “inactive”; with `CCOc1ccc(N/C(SC)=C(/C#N)C(N)=O)cc1`, “inactive”; with `O=C(OCC#CCSc1nnc(-c2ccc(Br)cc2)o1)c1ccco1`, “inactive”. Turning to `CC(C)Oc1ccccc1C1CC(=O)Nc2cc3c(cc21)OCCO3` (configuration not stated), the outcome was inactive. Same read-out and setting: with `COc1ccc(-c2csc3nc(C)n(-n4cccc4)c(=O)c23)cc1OC` the entry was “inactive”; with `COc1cccc(NC2=NCC(=O)N2Cc2cccs2)c1`, “inactive”.

Take `CSc1nc2c(c(=O)n1-c1ccccc1)SCC2`: the result was inactive. Consider `CC1(C)CC(=O)C2=C(C1)OC(N)=C(C#N)C2c1cccc(OC(=O)c2ccco2)c1` (configuration not stated), for which the outcome was inactive. On the same count and under the same terms, with `CCCCNC(=O)c1ccc2nc(-c3ccco3)c(-c3ccco3)nc2c1` the entry was “inactive”; with `O=C(CCc1ccc(CCC(=O)c2cccs2)s1)c1cccs1`, “inactive”. Same read-out and setting: with `Cn1cnc2c1c(=O)n(Cc1ccc(F)cc1Cl)c(=O)n2C` the entry was “inactive”; with `Clc1ccccc1-c1nn2c(-c3ccncc3)nnc2s1`, “inactive”. For the molecule `c1ccc(C2CC(c3ccccc3)n3ncnc3N2)cc1` (configuration not stated), the result was inactive. On the same count and under the same terms, with `C=CCc1c(C)nc(SC)nc1Nc1ccc(C(=O)O)cc1` the entry was “inactive”; with `CCCCNC(=O)c1cc(-c2ccc(OC)c(OC)c2)on1`, “inactive”; with `O=c1n(Cc2ccccc2)c2cc(Cl)cnc2n1Cc1ccccc1`, “inactive”.

As for `CCOCCOC(=O)C1=C(C)Nc2ccc(C)cc2S1`, the result was inactive. On the same count and under the same terms, with `Nc1nc(SCc2ccc3c(c2)OCCO3)n[nH]1` the entry was “inactive”. Turning to `COc1ccccc1NC(=O)N(Cc1ccc2c(c1)OCO2)Cc1nc2ccccc2c(=O)[nH]1`, the outcome was inactive. As for `COc1ccc(-c2noc(CCC(N)=O)n2)cc1OC`, the result was inactive.

With `Cc1cc(C)nc(SCC(=O)N2CCCCC2)n1`, the result was inactive. Still for that read-out and setting: with `Cn1c(=O)c2c(-c3ccc(C(C)(C)C)cc3)n(N3CCOCC3)cc2n(C)c1=O` the entry was “inactive”. The same measure, in the same setting: with `Clc1ccccc1Cn1nnc2c(N3CCCC3)ncnc21` the entry was “inactive”; with `CC(C)Cc1nc(N2CCN(C(=O)C(C)C)CC2)c(C#N)c2c1CCC2`, “inactive”. Same read-out and setting: with `COc1ccccc1NC(=O)CC1Nc2ccccc2NC1=O` (configuration not stated) the entry was “inactive”; with `COc1ccc(S(=O)(=O)N2CCSC2c2ccc(OC)c(OC)c2)cc1` (configuration not stated), “inactive”. `CC(C)OC(=O)CSc1nnc(-c2cnccn2)n1-c1ccccc1`: the outcome was inactive.

For the molecule `CCn1c(=O)c(C(=O)NCc2cccnc2)c(O)c2ccccc21`, the result was inactive. In the case of `C1CCC(c2nn3c(-c4n[nH]c5c4CCC5)nnc3s2)CC1`, the pEC50 is 5.94. Regarding `CCc1nnc(NC(=O)CSc2ncc(-c3ccccc3)n2CC)s1`, the outcome was inactive. For the molecule `Cc1c(C)c2ccc(OC3CCCCC3=O)cc2oc1=O` (configuration not stated), the outcome was inactive.

Turning to `COc1ccc(-c2noc(-c3ccco3)n2)cc1OC`, the result was inactive. The same measure, in the same setting: with `CCn1nc(C(=O)NC2=NCCS2)c2ccccc2c1=O` the entry was “inactive”. Consider `COc1cc(OC)cc(C(=O)Nn2cc(C(=O)N3CCN(C)CC3)c3ccccc3c2=O)c1`, for which the outcome was inactive. Same read-out and setting: with `CCOc1ccccc1NC(=O)CN(C)S(=O)(=O)c1cccc2nsnc12` the entry was “inactive”. Still for that read-out and setting: with `COC(=O)c1c(-c2ccccc2)csc1NC(=O)c1ccco1` the entry was “inactive”; with `CC(=O)c1cc(C#N)c(SCC(=O)OC(C)(C)C)nc1C`, “inactive”. Same read-out and setting: with `CCC(Sc1nc(=O)cc(N)n1CCc1ccccc1)C(=O)Nc1ccccc1C#N` (configuration not stated) the entry was “inactive”. Consider `CC1=CC(C)(C)N=C(NC#N)N1`, for which the result was inactive.

Consider `CNc1nc(C)c(C#N)c(-c2ccccc2)c1C(C)=O`, for which the pEC50 is 5.63.

For the molecule `Cc1sc2nc(C3CC3)nc(NCCNS(C)(=O)=O)c2c1C`, the result was inactive. The same measure, in the same setting: with `CCOC(=O)c1c(-c2cccs2)csc1NC(=O)CSc1ncn[nH]1` the entry was “inactive”. The same measure, in the same setting: with `CCOC(=O)N1CCN(C(=O)C(C)(C)Oc2ccc(Cl)cc2)CC1` the entry was “inactive”; with `COc1ccc(-c2noc(COc3ccc4ccccc4c3Br)n2)cc1OC`, “inactive”. Same read-out and setting: with `O=c1c2cc(Cl)ccc2[nH]c(=S)n1Cc1ccco1` the entry was “inactive”. Take `COc1cccc(-c2nn3c(-c4cc(C)[nH]n4)nnc3s2)c1`: the outcome was inactive. As for `O=C(c1ccco1)N1CCN(S(=O)(=O)c2ccc3c(c2)CCN3C(=O)C2CC2)CC1`, the result was inactive. On to `CC(C)c1ccc(-c2nc(N3CCCCC3)[nH]c(=O)c2C#N)cc1`, for which the pEC50 was 5.76. `c1ccc(COc2nsnc2N2CCOCC2)cc1`: the result was inactive.

With `CCCn1c(=O)c2ccccc2n2c(SCc3nc4ccccc4s3)nnc12`, the result was inactive. As to `O=C(CSc1nc2ccccc2s1)NC(=O)NCc1ccco1`, the result was inactive. On to `Cc1noc(C)c1S(=O)(=O)N1CCCC(C(=O)NCc2ccccn2)C1` (configuration not stated), for which the outcome was inactive. For the molecule `COc1ncnc2c1N=C1CC(C)(C)CC(N)=C1S2`, the outcome was inactive.

As for `Cc1cccc(Cc2c(C)nc3c(C(=O)NCc4ccco4)cnn3c2C)c1`, the result was inactive. The same measure, in the same setting: with `CCOC(=O)c1[nH]c2ccccc2c1NC(=O)C(C)(C)C` the entry was “inactive”. Still for that read-out and setting: with `CN(C)c1oc(-c2ccccc2Cl)nc1C#N` the entry was “inactive”. The same measure, in the same setting: with `CC(=O)Nc1nc2n(n1)C(c1ccccc1)C=C(c1ccccc1)N2` (configuration not stated) the entry was “inactive”; with `CCOC(=O)c1nc(-c2ccccc2)oc1N(C)C`, “inactive”; with `COc1ccc2[nH]c(=O)c(CN(Cc3cccs3)Cc3nnnn3C(C)(C)C)cc2c1`, “inactive”. Take `CCCCCn1c(N)c(C#N)c2nc3ccccc3nc21`: the outcome was inactive. Regarding `N#CC1=C(N)n2c(s/c(=C\c3ccco3)c2=O)=C(C#N)C1c1ccco1` (configuration not stated), the result was inactive.

Take `Cc1cc(N2CCN(S(=O)(=O)c3ccc4c(c3)OCCO4)CC2)n2ncnc2n1`: the result was inactive.

As to `Nc1nonc1-n1nnc(C(=O)c2ccccc2)c1-c1ccccc1`, the outcome was inactive. On the same count and under the same terms, with `Cc1cccc(-c2c3c(=O)n(C)c(=O)n(C)c3cn2-c2ccccc2O)c1` the entry was “inactive”. As to `NC(=O)CSc1nc2scc(-c3ccco3)c2c(=O)n1-c1ccccc1`, the pEC50 was 5.79. Consider `CC(=O)N1CCC2(CC1)C(C#N)=C(N)Oc1c2sc2nc(C)cc(C)c12`, for which the result was inactive.

For the molecule `Cc1cc(C)n2c3c(c(C#N)c2n1)CCCC3`, the outcome was inactive. Same read-out and setting: with `c1ccc(-c2nc3nonc3nc2-c2ccccc2)cc1` the entry was “inactive”; with `COc1ccc(-n2nc3ccccc3n2)cc1`, “inactive”; with `Cc1ccc(Oc2ccccc2)c(NC=O)c1`, “inactive”.

For the origin of these results see PubChem BioAssay AID858 (Vanderbilt High Throughput Screening Facility, 2007).
